Results reported in patent US20230081986A1, “METHOD AND REAGENTS TO IMPROVE NONANIMAL OCULAR TOXICITY TESTS” (Lebrun Labs LLC, priority 2021, published 2023).
Like-named read-outs stand apart in the source and are kept apart here.

Tests used:
[1] = system: food-source rabbit eyes (cornea)
Description: (§1) Because of these modifications, we have updated our prediction model to include the metabolic test to identify reversible irritants or toxicity as shown in FIG. 3. For GHS (A) and EPA (B) classification systems, if the direct procedure (100 µL, washed after 1 minute exposure with 20 mL tear solution using a blunt end syringe 2-5 cm from cornea to create a laminar flow across the tissue) is negative, the metabolic result is used to confirm the negative result or identify reversible irritants or toxicity (GHS 2 or EPA II) if increased DoI is detected. […] For the GHS classification system, the NC is defined by no stromal DoI and a negative metabolic test.
Only food source eyes are suitable for this procedure.
3) Put the lid onto the 12 well plate(s) and place into the incubator (37° C., 5% CO2) for one hour.
3) Place an eye on the holder and carefully place a new cloning ring in the middle of the cornea without scratching it.
9) Start the timer for one minute.
10) After the one minute is over, remove the dosing ring and put in the proper container, and pick up the tissue without touching the cornea and hold it over the container for liquid waste.

[2] = system: food-source rabbit eyes (cornea); remark: listed apart in the source
Description: All of the steps of the META test are the same as the direct test except for the dosing step. For the META, 100 µL of tear solution (saline with ascorbic acid, protein) is first added to the dosing ring, followed by the addition of 100 µL of the material to be tested.
as §1
NOTE: The steps of the main procedure are the same as described above. The only deviations are described below and apply to the dosing of the corneas and interpretation of results. • 1) After the pre-incubation, remove the 12 well plate(s) from the incubator and place in the hood. • 2) Using a skinny sharpie, label the wells on the lid (water or specific chemical). • 3) Place an eye on the holder and carefully place a new cloning ring in the middle of the cornea without scratching it. • 4) Remove the needle from the syringe by twisting it off. Fill the syringe with 40 mL of 1x PBS by aliquoting it from the beaker. • 5) Put the needle back on the syringe by twisting on and remove the cap protecting the needle. Place the syringe flat on a sterile piece of foil. • 6) Obtain the timer. Add 100 uL of the T8 tear solution in the center of the dosing ring. Ensure the entire surface is covered. • 7) Retrieve 100 uL of the sample and aspirate in the center of the dosing ring, ensuring the entire surface is exposed.

[3] = system: rabbit eye (cornea, iris, and conjunctiva); settings: Lebrun et al., cited from earlier work; for in vivo EPA: EPA classification, 2020 / NICEATM, 2006; for in vivo GHS: GHS classification, 2020
[4] = system: food-source rabbit eyes (cornea); settings: for Prediction EPA: EPA prediction model from direct and metabolic results; for Prediction GHS: GHS prediction model from direct and metabolic results
Excerpt: FIG. 3 depicts the EPA and GHS prediction models. […] Meta. = Metabolic; GHS = Globally Harmonized System of Classification and Labeling of chemicals; EPA = Environmental Protection Agency; NC = Not Classified; * = Apical death of epithelium of at least 10%; must be a clear line of nuclei.
as §1

[5] = 100 µL, 1 minute exposure, tear solution wash, 24 hours organ culture
[6] = 6 minutes, 100 µL tear solution then 100 µL test material, run only where Direct was 0%

| Molecule | Direct (depth of injury, stromal) [1, 5] | Meta. (Metabolic) [2, 6] | Direct (depth of injury, stromal) ([1]; rabbit, 1 min) | in vivo EPA [3] | in vivo GHS [3] | Meta. (Metabolic) [2] | Prediction EPA [4] | Prediction GHS [4] |
| --- | --- | --- | --- | --- | --- | --- | --- | --- |
| OCCCCC(O)CO (stereo not shown) [1,2,6-Hexanetriol] | 0.0% | Neg. |  |  |  |  |  |  |
| BrCCCCCCBr [1,6-Dibromohexane] | 0.0% | Neg. |  |  |  |  |  |  |
| CCC(C)(C)C(=O)O [2,2-Dimethyl butanoic acid] |  |  | 27.4% | I (I (corrosive, lesions are not reversed within 21 days)) | 1 (1 (extreme and/or irreversible irritation effects that are not reversed within 21 days)) |  |  |  |
| CC(O)CC(C)O (stereo not shown) [2,4-Pentanediol] |  |  | 0.0% |  |  | Neg. |  |  |
| CCOC(=O)C(C)(C)O [2-Hydroxy isobutyric acid ethyl ester] |  |  | 42.3% | *I^2 (I (corrosive, lesions are not reversed within 21 days)) | 1 (1 (extreme and/or irreversible irritation effects that are not reversed within 21 days)) |  |  |  |
| CCCC(C)CO (stereo not shown) [2-Methyl-1-pentanol] |  |  | 5.7% | III (III (damage is reversed within 7 days of exposure)) | 2B (2 B, within 7 days) |  | III (category III includes damage to the epithelium of the stroma up to 15%) |  |
| N#CCCCl [3-Chloropropionitrile] | 12.0% |  |  | III (III (damage is reversed within 7 days of exposure)) | 2B (2 B, within 7 days) |  | III (category III includes damage to the epithelium of the stroma up to 15%) | 2 (Category 2 is identified by any stromal DoI up to 18% or a positive metabolic test) |
| COCC(O)CO (stereo not shown) [3-Methoxy-1,2-propanediol] | 0.0% | Neg. |  |  |  |  |  |  |
| CC(=O)O [Acetic Acid (10%), Acetic Acid] |  |  |  | I (I (corrosive, lesions are not reversed within 21 days)) | 1 (1 (extreme and/or irreversible irritation effects that are not reversed within 21 days)) |  |  |  |
| O=S(=O)(Cl)c1ccccc1 [Benzenesulphonylchloride] | 52.8% |  |  | *I^2 (I (corrosive, lesions are not reversed within 21 days)) | 1 (1 (extreme and/or irreversible irritation effects that are not reversed within 21 days)) |  | I (category I includes damage greater than 25%) | 1 (GHS category 1 is defined as stromal damage of 18% or greater) |
| OC1CCCCC1 [Cyclohexanol] | 29.6% |  |  | I (I (corrosive, lesions are not reversed within 21 days)) | 1 (1 (extreme and/or irreversible irritation effects that are not reversed within 21 days)) |  | I (category I includes damage greater than 25%) | 1 (GHS category 1 is defined as stromal damage of 18% or greater) |
| OC1CCCC1 [Cyclopentanol] | 30.4% |  |  | II (II (damage is reversed within 21 days of exposure)) | 2B (2 B, within 7 days) |  | I (category I includes damage greater than 25%) | 1 (GHS category 1 is defined as stromal damage of 18% or greater) |
| CC(C)CC(=O)CC(C)C [Di-iso-butyl ketone] |  |  | 0.0% |  |  |  |  |  |
| CCCCCCCCOCCCCCCCC [Dioctyl ether] |  |  | 0.0% |  |  | Neg. |  |  |
| OCC(O)CO [Glycerol] |  |  | 0.0% |  |  |  |  |  |
| C[Si](C)(C)O[Si](C)(C)C [Hexamethyldisiloxane] | 0.0% | Neg. |  |  |  |  |  |  |
| CCCCCC [Hexane] | 0.0% | Neg. |  |  |  |  |  |  |
| C=CC(=O)OCCO [Hydroxyethyl acrylate] | 100.0% |  |  |  |  |  |  | 1 (GHS category 1 is defined as stromal damage of 18% or greater) |
| CC(=O)CC(=O)OC(C)C [Isopropyl acetoacetate] |  |  | 0.0% | III (III (damage is reversed within 7 days of exposure)) | 2B (2 B, within 7 days) | Pos. |  |  |
| CC(O)C(=O)O (stereo not shown) [Lactic acid] |  |  | 100.0% | I (I (corrosive, lesions are not reversed within 21 days)) | 1 (1 (extreme and/or irreversible irritation effects that are not reversed within 21 days)) |  | I (category I includes damage greater than 25%) |  |
| COC(C)=O [Methyl acetate] |  |  | 24.0% | II (II (damage is reversed within 21 days of exposure)) | 2A (2 A, irritation effects are reversed within 21 days) |  |  |  |
| CCCCCC(C)=O [Methyl amyl ketone] | 6.0% |  |  | III (III (damage is reversed within 7 days of exposure)) |  |  | III (category III includes damage to the epithelium of the stroma up to 15%) | 2 (Category 2 is identified by any stromal DoI up to 18% or a positive metabolic test) |
| CCCOCC(C)O (stereo not shown) [Propasol solvent P] | 18.3% |  |  | II (II (damage is reversed within 21 days of exposure)) | 2A (2 A, irritation effects are reversed within 21 days) |  | II (category II includes damage greater than 15% but less than 25% (or is positive for cell death by the metabolic test)) | 1 (GHS category 1 is defined as stromal damage of 18% or greater) |
| CC(O)CO (stereo not shown) [Propylene glycol] |  |  | 0.0% |  |  | Neg. |  |  |
| Cc1ccccc1 [Toluene] | 50.1% |  |  |  |  |  |  | 1 (GHS category 1 is defined as stromal damage of 18% or greater) |
| C=CC(=O)OCCCCCC(C)C [iso-Octyl acrylate] | 0.0% |  |  |  |  |  |  |  |
| CC(C)CCCCCOC(=O)CS [iso-Octylthioglycolate] | 0.0% | Neg. |  |  |  |  |  |  |
| CCCCCCCCBr [n-Octyl bromide] | 0.0% |  |  |  |  |  |  |  |
| CCC(C)c1ccccc1 (stereo not shown) [sec-Butylbenzene] | 0.0% | Neg. |  |  |  |  |  |  |
| Diethylaminopropionitrile | 56.8% |  |  | II (II (damage is reversed within 21 days of exposure)) | 1 (1 (extreme and/or irreversible irritation effects that are not reversed within 21 days)) |  | II (category II includes damage greater than 15% but less than 25% (or is positive for cell death by the metabolic test)) | 1 (GHS category 1 is defined as stromal damage of 18% or greater) |
